Experimental data: patent publication US20100099756A1, “USES OF INCENSOLE, INCENSOLE ACETATE AND DERIVATIVES THEREOF” (YISSUM RESEARCH DEVELOPMENT COMPANY OF THE HEBREW …, priority 2006, published 2010)

Columns and labels:
[1] = molecular target: T1, rat-TRPV2 (Rattus norvegicus, UniProt Q9WUD2); experiment: Calcium imaging of HEK293 cells transiently transfected with rat-TRPV2; type: cell-based; conditions: IA 100 μM
T1 construct: expressed in transfected cells; host or cells: HEK293 (transient, lipofectamine)
T1 sequence (Q9WUD2 whole entry): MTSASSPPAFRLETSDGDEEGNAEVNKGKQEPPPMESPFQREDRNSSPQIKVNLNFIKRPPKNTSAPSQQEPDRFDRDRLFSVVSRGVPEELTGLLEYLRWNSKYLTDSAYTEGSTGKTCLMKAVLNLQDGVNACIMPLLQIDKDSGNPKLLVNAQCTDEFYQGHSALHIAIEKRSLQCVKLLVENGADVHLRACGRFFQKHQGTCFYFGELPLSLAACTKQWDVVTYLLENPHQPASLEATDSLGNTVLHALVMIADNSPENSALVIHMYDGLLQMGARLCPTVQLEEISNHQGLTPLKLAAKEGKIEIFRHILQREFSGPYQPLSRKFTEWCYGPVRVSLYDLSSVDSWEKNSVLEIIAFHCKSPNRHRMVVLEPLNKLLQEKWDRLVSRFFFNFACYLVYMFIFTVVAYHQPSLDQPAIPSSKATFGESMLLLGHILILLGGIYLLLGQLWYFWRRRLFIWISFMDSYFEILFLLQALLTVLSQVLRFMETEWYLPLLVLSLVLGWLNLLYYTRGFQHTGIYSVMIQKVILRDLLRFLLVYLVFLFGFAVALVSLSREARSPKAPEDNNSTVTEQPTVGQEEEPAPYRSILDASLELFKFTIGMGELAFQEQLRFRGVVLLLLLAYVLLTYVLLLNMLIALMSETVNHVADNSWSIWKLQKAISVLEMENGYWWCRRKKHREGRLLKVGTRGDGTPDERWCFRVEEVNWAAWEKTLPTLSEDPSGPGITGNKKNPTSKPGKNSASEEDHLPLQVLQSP
Excerpt: All error bars indicate SEM; p values in all subfigures but c represent analysis with one-way ANOVA Bonferroni's post hoc.
HEK293 cells were transiently transfected with a rat TRPV2 plasmid using lipofectamine reagent (Invitrogen, Carlsbad, Calif.) according to manufacturer's protocol. They were then maintained in Dulbecco's modified Eagle Medium/10% fetal calf serum supplemented with Penicillin, Streptomycin, and L-glutamine. Primary keratinocytes from TRPV3-deficient and TRPV3+/+ mouse pups (day 1-4) were harvested and cultured as described previously [Chung, M. K., Lee, H., Mizuno, A., Suzuki, M. & Caterina, M. J. TRPV3 and TRPV4 mediate warmth-evoked currents in primary mouse keratinocytes. J. Biol. Chem. 279, 21569-21575 (2004)].
For single cell calcium imaging, HEK293-rat TRPV2 and HEK293-mouse TRPV3-YFP expressing cells were plated on collagen-coated glass cover slips. Cells were loaded for 60 min with 3 μM Fura-2 AM.

[2] = test system: inflamed paw; experiment: Inflamed paw model (carrageenin) in mice; type: in vivo, Sabra female mice
Description: IA (50 mg/kg) or vehicle were injected i.p. to Sabra female mice (5 per group) 30 min before induction of the inflammatory stimulus. Hind paws were then injected with 50 μl of saline or λ-carrageenin (4%). Ensuing inflammatory swelling was measured by increase in foot volume in a plethysmometer. […] There were highly significant effects of treatment (F=11.7, df=3.64, P<0.001). *, different from IA +saline, P<0.05; **, ***, different from vehicle+saline at P<0.01, P<0.001 respectively; #, different from vehicle+carrageenin, P<0.05.
Inflamed Paw Model. Sabra female mice were used to assess the response to IA or vehicle in an in vivo model of inflammation. Drug or vehicle was administered 30 min before induction of the inflammatory stimulus. Mice (5 per group) were injected i.p. with vehicle (isopropanol:Emulphor:saline=1:1:18) or with vehicle containing IA (50 mg/kg, i.p). Emulphor (a polyethoxylated vegetable oil) is a commercial emulsifier. Hind paws were injected with 50 μl of saline (left or right alternatively) or λ-carrageenin (4%, right or left alternatively), using 26G needles. Ensuing inflammatory swelling was measured by increase in foot volume in a plethysmometer (Ugo-Basile, Italy). Paw volume as well as redness (as a measure of erythema) and licking (as a measure of pain) were assayed before carrageenin application and every 60 min until 4 hrs.

[3] = test system: TRPV4; experiment: Whole-cell voltage-clamp, TRPV4(+) cells; type: cell-based; conditions: IA 200 μM
Description: TRPV3(+) response to IA is shown for reference. *, p<0.001. Error bars represent SEM, n=4-5.
Electrophysiological recording. Currents were recorded using whole-cell voltage-clamp. Pipettes were pulled from microcapillary glass (A-M Systems). A coverslip containing cells was transferred to a 300 μL chamber that was constantly perfused (1-2 mL/min) with external solution. Voltage protocols were generated and data were digitized and recorded using Pulse (HEKA Elektronik) software in conjunction with an Axopatch 200A amplifier (Axon Instruments), and the data analyzed using an in-house Visual Basic (Microsoft) analysis program.
The pipette solution contained (in mM): 121.5 Kgluconate, 10 HEPES, 17 KCl, 9 NaCl, 1 MgCl2, 0.2 EGTA, 2 MgATP, and 0.5 NaATP, pH 7.2. The external solution contained (in mM): 120 NaCl, 5 KCl, 1 MgCl2, 2 CaCl2, 10 Glucose and 20 HEPES, pH 7.4 with NaOH. The measured charge (pC) was defined as the charge elicited between -85 and -45 mV by a ramping voltage stimulus (−85 mV to +35 mV, 0.54 mV/msec; holding potential -55 mV). Currents were sampled at 5 kHz. Experimental and control cells were alternated whenever possible. Control values were obtained from adjacent cells with no detectable YFP fluorescence, presumed to be non-TRPV3-expressing.

[4] = test system: closed head injury; experiment: Neurological severity score (NSS) recovery after closed head injury (CHI); type: in vivo, mice; conditions: 50 mg/kg i.p.
Description: This effect was sustained from 24 h to 21 days following injury as determined by the Mann-Whitney test (n=9-10 per group; * p<0.01; **p<0.001, as compared to vehicle treated, at the same day). (B) Mice were subjected to the object recognition test (Example 6) 3, 7, 14 and 21 days after CHI. The absolute time spent exploring each of the two objects was recorded and the % time calculated. At baseline (bl), when presented with two identical objects, exploration time of each object was about 50% in both groups. In the test (T) situation, after one of the objects was replaced by a novel one the % time spent exploring the new object was calculated.
At 1 h after CHI, the functional status of the mice was evaluated according to a set of 10 neurobehavioral tasks (neurological severity score, NSS) that tests reflexes, alertness coordination, and motor abilities. One point was awarded for absence of reflex or failure to perform a particular task. […] Mice were equally divided to vehicle\ IA groups according to their NSS scores. Only mice with NSS>4 at 1 h after injury were included in the study. […] Recovery (ΔNSSt) was defined as the difference between NSS1h and NSS measured at any later time point and was determined at several time points up to 21 days following CHI.

CC(=O)OC1CC/C(C)=C/CC/C(C)=C/CC2(C(C)C)CCC1(C)O2 (stereo not drawn) [IA, incensole acetate]
calcium influx in rat-TRPV2 transfected HEK293 cells [1]: did not induce calcium influx | inflammation (inflamed paw volume) ([2]; 50 mg/kg i.p. 30 min before carrageenin, 4 hrs period): significantly reduced inflammation | other inflammatory parameters, such as redness and pain ([2]; 50 mg/kg i.p., data not shown): significantly reduced | current activation in TRPV4(+) cells [3]: does not activate currents | ΔNSS (recovery of motor ability) ([4]; 24 h after injury, P=0.002 vs vehicle): 1.00±0.12 | ΔNSS at subsequent time points ([4]; up to 3 weeks post injury, vs vehicle): significantly higher
